Assays:
[1] = test system: duck salad; test: Test C flooded paddy test; format: in vivo, Heteranthera limosa; conditions: Flood
In short: (§1)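 Greenhouse pots flooded to 3 cm above soil at time of treatment received compound via the water, which stayed at that level.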

[2] = test system: johnsongrass; test: Test C pre-/postemergence test; format: in vivo, Sorghum halepense
From the text: (§2) Seeds of plant species selected from blackgrass (Alopecurus myosuroides), downy brome (Bromus tectorum), green foxtail (Setaria viridis), Italian ryegrass (Lolium multiflorum), wheat (Triticum aestivum), wild oat (Avena fatua), catchweed bedstraw (Galium aparine), Russian thistle (Salsola kali), […] (Cynodon dactylon), Surinam grass (Brachiaria decumbens), cocklebur (Xanthium strumarium), corn (Zea mays), crabgrass (Digitaria sanguinalis), woolly cupgrass (Eriochloa villosa), giant foxtail (Setaria faberii), Goosegrass (Eleusin indica), johnsongrass (Sorghum halepense), kochia (Kochia scoparia), lambsquarters (Chenopodium album), morningglory (Ipomoea coccinea), eastern black nightshade (Solanum ptycanthum), yellow nutsedge (Cyperus esculentus), pigweed (Amaranthus retroflexus), common ragweed (Ambrosia elation), soybean (Glycine max), common (oilseed) sunflower (Helianthus annuus), and velvetleaf (Abutilon theophrasti) were planted and treated preemergence with test chemicals formulated in a non-phytotoxic solvent mixture which included a surfactant. At the same time, plants selected from these crop and weed species and also winter barley (Hordeum vulgare), canarygrass (Phalaris minor), and chickweed (Stellaria media) were treated with postemergence applications of some of the test chemicals formulated in the same manner. Plants ranged in height from 2 to 18 cm (1- to 4-leaf stage) for postemergence treatments. […] At time of treatment, test pots were flooded to 3 cm above the soil surface, treated by application of test compounds directly to the paddy water, and then maintained at that water depth for the duration of the test. […] A dash (-) response means no test result.

[3] = test system: crabgrass; test: Test C pre-/postemergence test; format: in vivo, Digitaria sanguinalis
From the text: as §2

[4] = test system: velvetleaf; test: Test A pre-/postemergence greenhouse test; format: in vivo, Abutilon theophrasti; conditions: for Velvetleaf plant response rating: 0 to 100 scale
In short: (§3)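 Herbicidal effect is a visual injury score given about ten days post-treatment by comparison with untreated controls. Preemergence plots received a directed spray onto sown loam–sand soil; postemergence plants, at the one- to two-leaf stage and 2–10 cm tall, were sprayed at the same time.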

[5] = test system: umbrella sedge; test: Test C flooded paddy test; format: in vivo, Cyperus difformis; conditions: Flood
In short: as §1

[6] = test system: soybean; test: Test C pre-/postemergence test; format: in vivo, Glycine max
From the text: as §2

[7] = test system: corn; test: Test C pre-/postemergence test; format: in vivo, Zea mays
From the text: as §2

[8] = test system: corn; test: Test A pre-/postemergence greenhouse test; format: in vivo, Zea mays; conditions: for Corn plant response rating: 0 to 100 scale
In short: as §3

[9] = test system: crabgrass; test: Test A pre-/postemergence greenhouse test; format: in vivo, Digitaria sanguinalis; conditions: for Crabgrass, Large plant response rating: 0 to 100 scale
In short: as §3

[10] = test system: yellow nutsedge; test: Test C pre-/postemergence test; format: in vivo, Cyperus esculentus
From the text: as §2

[11] = test system: bermudagrass; test: Test C pre-/postemergence test; format: in vivo, Cynodon dactylon
From the text: as §2

[12] = test system: barnyardgrass; test: Test C flooded paddy test; format: in vivo, Echinochloa crus-galli; conditions: Flood
In short: as §1

[13] = test system: barnyardgrass; test: Test A pre-/postemergence greenhouse test; format: in vivo, Echinochloa crus-galli; conditions: for Barnyardgrass plant response rating: 0 to 100 scale
In short: as §3

[14] = test system: pigweed; test: Test C pre-/postemergence test; format: in vivo, Amaranthus retroflexus
From the text: as §2

[15] = test system: Goosegrass; test: Test C pre-/postemergence test; format: in vivo, Eleusin indica
From the text: as §2

[16] = 31 g ai/ha, scale 0 to 100 (0 no effect, 100 complete control)
[17] = 62 g ai/ha, scale 0 to 100, 0 no effect, 100 complete control, 13 to 15 days
[18] = 125 g ai/ha, scale 0 to 100, 0 no effect, 100 complete control, 13 to 15 days
[19] = 250 g ai/ha, scale 0 to 100, 0 no effect, 100 complete control, 13 to 15 days
[20] = 62 g ai/ha, Preemergence, scale 0 to 100
[21] = 125 g ai/ha, preemergence, scale 0 (no effect) to 100 (complete control)
[22] = Preemergence, 31 g ai/ha, scale 0 to 100 (0 no effect, 100 complete control)
[23] = preemergence, 250 g ai/ha, scale 0 (no effect) to 100 (complete control)
[24] = Postemergence, 125 g ai/ha, 0 is no effect, 100 is complete control
[25] = Postemergence, 500 g ai/ha, 0 is no effect, 100 is complete control
[26] = Preemergence, 125 g ai/ha, 0 no effect, 100 complete control
[27] = Preemergence, 500 g ai/ha, 0 to 100 scale where 0 is no effect and 100 is complete control

Cn1nc(C(F)(F)F)c(C[S+]([O-])c2cc(Cl)cc[n+]2[O-])c1Cl (racemic) [Compound 39]
Plant response rating, Ducksalad [1, 16]: 70 | Plant response rating, Ducksalad [1, 17]: 80 | Plant response rating, Ducksalad [1, 18]: 90 | Plant response rating, Ducksalad [1, 19]: 95 | Johnsongrass plant response rating [2, 20]: 80 | Johnsongrass plant response rating [2, 21]: 85 | Plant response rating, Johnsongrass [2, 22]: 30 | Johnsongrass plant response rating [2, 23]: 85 | Crabgrass, Large plant response rating [3, 20]: 90 | Crabgrass, Large plant response rating [3, 21]: 100 | Plant response rating, Crabgrass, Large [3, 22]: 80 | Crabgrass, Large plant response rating [3, 23]: 100 | Velvetleaf plant response rating [4, 24]: 40 | Velvetleaf plant response rating [4, 25]: 60 | Velvetleaf plant response rating [4, 26]: 70 | Plant response rating, Velvetleaf [4, 27]: 100 | Plant response rating, Sedge, Umbrella [5, 16]: 70 | Plant response rating, Sedge, Umbrella [5, 17]: 85 | Plant response rating, Sedge, Umbrella [5, 18]: 95 | Plant response rating, Sedge, Umbrella [5, 19]: 95 | Soybean plant response rating [6, 20]: 0 | Soybean plant response rating [6, 21]: 10 | Plant response rating, Soybean [6, 22]: 0 | Soybean plant response rating [6, 23]: 10 | Corn plant response rating [7, 20]: 5 | Corn plant response rating [7, 21]: 70 | Plant response rating, Corn [7, 22]: 0 | Corn plant response rating [7, 23]: 80 | Corn plant response rating [8, 24]: 30 | Corn plant response rating [8, 25]: 50 | Corn plant response rating [8, 26]: 30 | Plant response rating, Corn [8, 27]: 50 | Crabgrass, Large plant response rating [9, 24]: 80 | Crabgrass, Large plant response rating [9, 25]: 80 | Crabgrass, Large plant response rating [9, 26]: 90 | Plant response rating, Crabgrass, Large [9, 27]: 90 | Nutsedge, Yellow plant response rating [10, 20]: 50 | Nutsedge, Yellow plant response rating [10, 21]: 85 | Plant response rating, Nutsedge, Yellow [10, 22]: 50 | Nutsedge, Yellow plant response rating [10, 23]: 85 | Bermudagrass plant response rating ([11]; 62 g ai/ha, Preemergence, scale 0 to 100 (0 no effect, 100 complete control)): 100 | Bermudagrass plant response rating [11, 21]: 100 | Plant response rating, Bermudagrass [11, 22]: 85 | Bermudagrass plant response rating [11, 23]: 100 | Plant response rating, Barnyardgrass [12, 16]: 0 | Plant response rating, Barnyardgrass [12, 17]: 0 | Plant response rating, Barnyardgrass [12, 18]: 30 | Plant response rating, Barnyardgrass [12, 19]: 65 | Barnyardgrass plant response rating [13, 24]: 70 | Barnyardgrass plant response rating [13, 25]: 90 | Barnyardgrass plant response rating [13, 26]: 90 | Plant response rating, Barnyardgrass [13, 27]: 100 | Pigweed plant response rating [14, 20]: 100 | Pigweed plant response rating [14, 21]: 100 | Plant response rating, Pigweed [14, 22]: 100 | Pigweed plant response rating [14, 23]: 100 | Goosegrass plant response rating [15, 20]: 100 | Goosegrass plant response rating [15, 21]: 100 | Plant response rating, Goosegrass [15, 22]: 98 | Goosegrass plant response rating [15, 23]: 100

From patent publication US20100298141A1, “SUBSTITUTED PYRIDINE N-OXIDE HERBICIDES” (E. I. DU PONT DE NEMOURS AND COMPANY, priority 2007, published 2010)
